For 31 molecules, IC50 and EC50 results are on record in patent US7829665B2 (priority 2005, dated 2010).

The target in test [1] is T1, full-length NS3/NS4A-2 (HCV NS3 protease) (Hepatitis C virus genotype 1a, UniProt P27958).
T1 construct: Recombinant E. coli or Baculovirus full-length NS3 was diluted to 3.33 μM with assay buffer; made in house; host or cells: E. coli or baculovirus (BV) expression system
Briefly: NS3-NS4 protease assay / NS3 inhibition assay (RETS1 substrate, fluorescence kinetic read). The test is classed as biochemical. The following applies: recombinant E. coli or Baculovirus full-length NS3 with NS4A-2; read-out: NS3-NS4 IC50. An outline of the steps: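 Ki values come from IC50 fits corrected via Ki=IC50/(1+[S]/Km), with Km 2.03 μM for E. coli and 1.74 μM for baculovirus full-length NS3. Enzyme (2 or 3 nM NS3, respectively, complexed with NS4A-2) sat with compound, top concentration 50 microM, for 10 min at room temperature. Cleavage of RETS1 (8 μM working solution) was then followed by fluorescence (335/495 nm) over 30 min.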

In test [2] the test system is HCV sub-genomic replicon in GS4.3 cells (HuH-7 hepatoma cells). Briefly: Quantitation by ELISA of Neomycin phosphotransferase II (NPTII) in the HCV sub-genomic replicon, GS4.3. The class given is cell-based, hepatitis C virus. The following applies: Hepatitis C virus, Huh-7. An outline of the steps:
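Replicon-bearing HuH-7 (GS4.3) cells were exposed to compounds for 72 h in G418-free medium, top final concentration 10 μM, 1% DMSO. Lysates went to an NPTII ELISA read at 450 nm. Signal was normalised to DMSO-treated wells and EC50 was derived by four-parameter curve fitting.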

The mark [3] stands for this setting: GS4.3 cells, 72 h incubation, NPTII ELISA, read-out: Replicon EC50.

Like-named read-outs stand apart in the source and are kept apart here.

T1 sequence (P27958 1027-1657): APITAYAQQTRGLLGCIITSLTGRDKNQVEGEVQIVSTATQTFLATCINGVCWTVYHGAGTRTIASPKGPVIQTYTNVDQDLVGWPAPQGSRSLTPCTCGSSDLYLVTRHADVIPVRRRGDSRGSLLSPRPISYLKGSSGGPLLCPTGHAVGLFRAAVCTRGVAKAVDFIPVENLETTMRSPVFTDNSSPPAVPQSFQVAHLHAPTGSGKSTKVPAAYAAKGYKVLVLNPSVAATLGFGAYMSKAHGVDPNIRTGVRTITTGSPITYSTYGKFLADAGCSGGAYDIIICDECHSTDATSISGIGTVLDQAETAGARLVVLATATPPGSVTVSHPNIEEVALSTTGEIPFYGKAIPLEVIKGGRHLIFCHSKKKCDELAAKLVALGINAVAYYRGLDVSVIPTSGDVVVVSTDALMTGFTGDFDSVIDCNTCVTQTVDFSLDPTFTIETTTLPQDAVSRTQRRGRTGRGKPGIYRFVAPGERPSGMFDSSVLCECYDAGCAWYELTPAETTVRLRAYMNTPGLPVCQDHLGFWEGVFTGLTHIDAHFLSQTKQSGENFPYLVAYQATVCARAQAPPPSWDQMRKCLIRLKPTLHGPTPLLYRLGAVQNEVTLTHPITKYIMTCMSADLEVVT

As a reminder, the IC50 is the midpoint of a concentration-inhibition curve. By EC50 is commonly meant the midpoint of the concentration-response curve. Consider `O=C(Cc1ccc(Cl)cc1)N[C@H]1CCCCC/C=C\[C@@H]2C[C@@]2(C(=O)NS(=O)(=O)C2CC2)NC(=O)C2CCCN2C1=O` (some centres unmarked) [Compound 2143], for which the IC50 in test [1] is over 10 µM. Moreover, in test [2] (Table 26, read-out: EC50), the EC50 was over 10 µM.

Consider `CC(C)(C)OC(=O)N[C@H]1CCCCC/C=C\[C@@H]2C[C@@]2(C(=O)NCC2CC2)NC(=O)[C@@H]2C[C@@H](OC(=O)N3Cc4cccc(Cl)c4C3)CN2C1=O` [Compound 627], for which the half-maximal inhibitory concentration (IC50) in test [1] is under 0.1 µM. In addition, in test [2] (setting [3]), the EC50 was under 0.1 µM.

Regarding `O=C(N[C@H]1CCCCC/C=C\[C@@H]2C[C@@]2(C(=O)NS(=O)(=O)C2CCCC2)NC(=O)[C@@H]2C[C@@H](OC(=O)N3CCc4ccccc4C3)CN2C1=O)OC1CCCC1` [Compound 186], in test [1], the IC50 was under 0.1 µM. Moreover, the 50% effective concentration (EC50) in test [2] (setting [3]) was under 1 µM.

For the molecule `O=C(N[C@H]1CCCCC/C=C\[C@@H]2C[C@@]2(C(=O)NS(=O)(=O)C2CC2)NC(=O)[C@@H]2C[C@@H](OC(=O)N3Cc4ccc(OCCN5CCOCC5)cc4C3)CN2C1=O)OC1CCCC1` [Compound 132], the 50% inhibitory concentration (IC50) in test [1] is under 0.1 µM. Also, the 50% effective concentration (EC50) in test [2] (setting [3]) is under 0.1 µM.

For `O=C1N[C@]2(C(=O)NS(=O)(=O)C3CC3)C[C@H]2/C=C\CCCCC[C@H](NC(=O)N2CCCC2)C(=O)N2C[C@H](OC(=O)N3Cc4cccc(F)c4C3)C[C@@H]12` [Compound 243], the 50% inhibitory concentration (IC50) in test [1] is under 0.1 µM. Further, the EC50 in test [2] (setting [3]) was under 0.1 µM.

Consider `O=C(N[C@H]1CCCCC/C=C\[C@@H]2C[C@@]2(C(=O)NS(=O)(=O)N2CCC2)NC(=O)[C@@H]2C[C@@H](OC(=O)N3Cc4cccc(F)c4C3)CN2C1=O)OC1CCCC1` [Compound 217], for which the IC50 in test [1] is under 0.1 µM. In addition, the EC50 in test [2] (setting [3]) was under 0.1 µM.

With `CC(C)(O)C(=O)N[C@H]1CCCCC/C=C\[C@@H]2C[C@@]2(C(=O)NS(=O)(=O)C2CC2)NC(=O)[C@@H]2C[C@@H](OC(=O)N3Cc4cccc(F)c4C3)CN2C1=O` [Compound 246], in test [1], the IC50 was under 0.1 µM. Moreover, the EC50 in test [2] (setting [3]) was under 1 µM.

Turning to `CC(C)OC(=O)N[C@H]1CCC(F)(F)CC/C=C\[C@@H]2C[C@@]2(C(=O)NS(=O)(=O)C2CC2)NC(=O)[C@@H]2C[C@@H](OC(=O)N3Cc4ccccc4C3)CN2C1=O` [Compound 1012], in test [1], the IC50 was under 0.1 µM. For the same molecule, the EC50 in test [2] (setting [3]) is under 0.1 µM.

For `CC(C)(C)c1csc(N[C@H]2CCCCC/C=C\[C@@H]3C[C@@]3(C(=O)NS(=O)(=O)C3CC3)NC(=O)[C@@H]3C[C@@H](OC(=O)N4Cc5cccc(F)c5C4)CN3C2=O)n1` [Compound 925], the IC50 in test [1] is under 0.1 µM. Also, the EC50 in test [2] (setting [3]) was under 0.1 µM.

Consider `CC(C)(C)OC(=O)N[C@H]1CCCCC/C=C\[C@@H]2C[C@@]2(C(=O)NC(=O)C2CC2)NC(=O)[C@@H]2C[C@@H](OC(=O)N3Cc4ccccc4C3)CN2C1=O` [Compound 701], for which, in test [1], the IC50 is under 0.1 µM. Further, the EC50 in test [2] (setting [3]) was under 0.1 µM.

As for `CC(C)(C)OC(=O)N[C@H]1CCN(CC(F)(F)F)CC/C=C\[C@@H]2C[C@@]2(C(=O)NS(=O)(=O)C2CC2)NC(=O)[C@@H]2C[C@@H](OC(=O)N3Cc4cccc(F)c4C3)CN2C1=O` [Compound 1032], the IC50 in test [1] is under 0.1 µM. Besides, the EC50 in test [2] (setting [3]) is under 0.1 µM.

As for `CC(C)(C)OC(=O)N[C@H]1CCCCC/C=C\[C@@H]2C[C@@]2(C(=O)NS(=O)(=O)NC2CCCC2)NC(=O)[C@@H]2C[C@@H](OC(=O)N3Cc4cccc(Cl)c4C3)CN2C1=O` [Compound 212], the IC50 in test [1] is under 0.1 µM. Also, the EC50 in test [2] (setting [3]) is under 1 µM.

On to `COCC1c2cccc(F)c2CCN1C(=O)O[C@@H]1CC2C(=O)N[C@]3(C(=O)NS(=O)(=O)C4CC4)C[C@H]3/C=C\CCCCC[C@H](N)C(=O)N2C1` (some centres unmarked) [Compound 106], for which the half-maximal inhibitory concentration (IC50) in test [1] is under 1 µM. In addition, the EC50 in test [2] (setting [3]) was over 10 µM.

For the molecule `CC(C)(C)OC(=O)N[C@H]1CCCCC/C=C\[C@@H]2C[C@@]2(C(=O)O)NC(=O)[C@@H]2C[C@@H](OC(=O)N3Cc4ccc(OCCn5cccn5)cc4C3)CN2C1=O` [Compound 130], in test [1], the IC50 is under 0.1 µM. Moreover, the concentration giving a half-maximal response (EC50) in test [2] (setting [3]) was under 10 µM.

`CC(C)(C)OCC(=O)N[C@H]1CCCCC/C=C\[C@@H]2C[C@@]2(C(=O)NS(=O)(=O)C2CC2)NC(=O)[C@@H]2C[C@@H](OC(=O)N3Cc4cccc(Cl)c4C3)CN2C1=O` [Compound 266]: the IC50 in test [1] is under 0.1 µM. The EC50 in test [2] (setting [3]) is under 0.1 µM.

Take `CC(C)(C)OC(=O)N[C@H]1CCCCC/C=C\[C@@H]2C[C@@]2(C(=O)NS(=O)(=O)c2cc(Cl)sc2Cl)NC(=O)[C@@H]2C[C@@H](OC(=O)N3Cc4cccc(Cl)c4C3)CN2C1=O` [Compound 172]: the half-maximal inhibitory concentration (IC50) in test [1] is under 0.1 µM. Besides, in test [2] (setting [3]), the EC50 is under 0.1 µM.

With `CC(C)(C)OC(=O)N[C@H]1CCCC(F)(F)C/C=C\[C@@H]2C[C@@]2(C(=O)NS(=O)(=O)C2CC2)NC(=O)[C@@H]2C[C@@H](OC(=O)N3Cc4cccc(F)c4C3)CN2C1=O` [Compound 1008, (2R,6S,13aS,14aR,16aS,Z)-6-(tert-butoxycarbonylamino)-14a-(cyclopropylsulfonylcarbamoyl)-9,9-difluoro-5,16-dioxo-1,2,3,5,6,7,8,9,10,11,13a,14,14a,15,16,16a-hexadecahydrocyclopropa(e)prrolo[1,2-a][1,4]diazacyclopentadecine 2-yl 4-fluoroisoindoline-2-carboxylate], the IC50 in test [1] was under 0.1 µM. Moreover, the EC50 in test [2] (setting [3]) was under 0.1 µM.

As to `O=C1N[C@]2(C(=O)NS(=O)(=O)C3CC3)C[C@H]2/C=C\CCCCC[C@H](NC2CCC2)C(=O)N2C[C@H](OC(=O)N3Cc4cccc(F)c4C3)C[C@@H]12` [Compound 907], in test [1], the concentration for half-maximal inhibition (IC50) is under 0.1 µM. Besides, the EC50 in test [2] (setting [3]) is under 1 µM.

On to `O=C1N[C@]2(C(=O)NS(=O)(=O)C3CC3)C[C@H]2/C=C\CCCCC[C@H](Nc2c(N3CCCCC3)c(=O)c2=O)C(=O)N2C[C@H](OC(=O)N3Cc4cccc(F)c4C3)C[C@@H]12` [Compound 198], for which, in test [1], the IC50 is under 0.1 µM. Further, the EC50 in test [2] (setting [3]) is under 1 µM.

Regarding `CC(C)(C)OC(=O)N[C@H]1CCCCC/C=C\[C@@H]2C[C@@]2(C(=O)NCc2cccc(C(O)C(F)(F)F)c2)NC(=O)[C@@H]2C[C@@H](OC(=O)N3Cc4cccc(F)c4C3)CN2C1=O` (some centres unmarked) [Compound 605], in test [1], the IC50 was under 1 µM. Besides, the EC50 in test [2] (setting [3]) was under 1 µM.

For the molecule `O=C1N[C@]2(C(=O)NS(=O)(=O)C3CC3)C[C@H]2/C=C\CCCCC[C@H](Nc2c(NCC(F)(F)F)c(=O)c2=O)C(=O)N2C[C@H](OC(=O)N3Cc4cccc(F)c4C3)C[C@@H]12` [Compound 196], the IC50 in test [1] is under 0.1 µM. Further, the half-maximal effective concentration (EC50) in test [2] (setting [3]) was under 10 µM.

Consider `CC(C)(C)OC(=O)N[C@H]1CCCCC/C=C\[C@@H]2C[C@@]2(C(=O)NS(=O)(=O)C2CC2)NC(=O)[C@@H]2C[C@@H](OC(=O)N3CCc4cccc(Cl)c4C3)CN2C1=O` [Compound 255], for which, in test [1], the IC50 was under 0.1 µM. Further, the EC50 in test [2] (setting [3]) is under 0.1 µM.

`O=C(N[C@H]1CCCCC/C=C\[C@@H]2C[C@@]2(C(=O)NS(=O)(=O)N2CCCC2)NC(=O)[C@@H]2C[C@@H](OC(=O)N3Cc4cccc(F)c4C3)CN2C1=O)OC1CCCC1` [Compound 216]: the IC50 in test [1] was under 0.1 µM. Also, in test [2] (setting [3]), the EC50 was under 0.1 µM.

Take `O=C1N[C@]2(C(=O)NCC3CC3)C[C@H]2/C=C\CCCCC[C@H](NC2CCC2)C(=O)N2C[C@H](OC(=O)N3Cc4cccc(F)c4C3)C[C@@H]12` [Compound 624]: in test [1], the IC50 was under 10 µM. Moreover, the EC50 in test [2] (setting [3]) was under 1 µM.

For the molecule `O=C1N[C@]2(C(=O)NS(=O)(=O)C3CC3)C[C@H]2/C=C\CCCCC[C@H](Nc2nccs2)C(=O)N2C[C@H](OC(=O)N3Cc4cccc(F)c4C3)C[C@@H]12` [Compound 924], in test [1], the IC50 was under 0.1 µM. For the same molecule, in test [2] (setting [3]), the EC50 is under 0.1 µM.

As to `O=C(N[C@H]1CCCCC/C=C\[C@@H]2C[C@@]2(C(=O)NS(=O)(=O)N(CC(F)(F)F)CC(F)(F)F)NC(=O)[C@@H]2C[C@@H](OC(=O)N3Cc4cccc(F)c4C3)CN2C1=O)OC1CCCC1` [Compound 224], the IC50 in test [1] is under 1 µM. The EC50 in test [2] (setting [3]) is under 10 µM.

`COc1cc2c(cc1OC)CN(C(=O)O[C@@H]1C[C@H]3C(=O)N[C@]4(C(=O)NS(=O)(=O)N5CCOCC5)C[C@H]4/C=C\CCCCC[C@H](NC(=O)OC(C)(C)C)C(=O)N3C1)CC2` [Compound 208]: in test [1], the IC50 is under 0.1 µM. Also, in test [2] (setting [3]), the EC50 was under 10 µM.

For the molecule `CC(C)(C)NC(=O)N[C@H]1CCCCC/C=C\[C@@H]2C[C@@]2(C(=O)O)NC(=O)C2C[C@@H](OC(=O)N3Cc4cccc(Cl)c4C3)CN2C1=O` (some centres unmarked) [Compound 177], the IC50 in test [1] is under 0.1 µM. In addition, the concentration for a half-maximal effect (EC50) in test [2] (setting [3]) is under 10 µM.

`CC(C)(C)OC(=O)N[C@H]1CCCCC/C=C\[C@@H]2C[C@@]2(C(=O)O)NC(=O)[C@@H]2C[C@@H](OC(=O)Nc3nc4ccccc4s3)CN2C1=O` [Compound 139]: in test [1], the IC50 was under 1 µM. Further, the 50% effective concentration (EC50) in test [2] (setting [3]) is over 10 µM.

For `Cc1ccccc1S(=O)(=O)NC(=O)[C@@]12C[C@H]1/C=C\CCCCC[C@H](NC(=O)OC(C)(C)C)C(=O)N1C[C@H](OC(=O)N3Cc4cccc(F)c4C3)C[C@H]1C(=O)N2` [Compound 157], the IC50 in test [1] is under 0.1 µM. Besides, in test [2] (setting [3]), the EC50 was under 0.1 µM.

For the molecule `O=C1N[C@]2(C(=O)NS(=O)(=O)C3CC3)C[C@H]2/C=C\CCCCC[C@H](NCc2cccc(C(F)(F)F)c2)C(=O)N2C[C@H](OC(=O)N3Cc4cccc(F)c4C3)C[C@@H]12` [Compound 901, (1S,4R,6S,14S,18R)-14-(3-(trifluoromethyl)benzylamino)-4-(cyclopropanesulfonyl)aminocarbonyl-18-(4-fluoro-1,3-dihydro-isoindole-2-carbonyloxyl)-2,15-dioxo-3,16-diaza-tricyclo[14.3.0.0^4,6]nonadec-7-ene], the IC50 in test [1] is under 0.1 µM. Besides, the EC50 in test [2] (setting [3]) is under 0.1 µM.
